Test results: patent US20060100210A1, “Methods for treatment of scleroderma” (priority 2001, published 2006)
Where a name gives a salt, the structure may show the parent alone. Read-outs that look alike come from different tables or passages of the source.

Experiments:
[1] = biological target: T1, GST-cGB-PDE5 fusion protein (cGMP binding sites of human PDE5A) (Homo sapiens, UniProt O76074); experiment: cGMP binding assay with GST-cGB-PDE5 fusion protein; conditions: for competition with cGMP in binding of GST-cGB-PDE5: high concentration (100 μM) vs cGMP (2 μM)
T1 construct: made in house; host or cells: E. coli BL21 (DE3)
Text: RT-PCR method is used to obtain the cGB domain of PDE5 with forward and reverse primers designed from bovine PDE5A cDNA sequence (McAllister-Lucas L. M. et al, J. Biol. Chem. 268, 22863-22873, 1993) and the selection among PDE 1-10 families. 5′-3′, Inc. kits for total RNA followed by oligo (dT) column purification of mRNA are used with HT-29 cells. […] It is then cloned into pGEX-5×-3 […] (GST) fusion vector (Pharmacia Biotech) with tac promoter, and EcoRI and XhoI cut sites. The fusion vector is then transfected into E. Coli BL21 (DE3) bacteria (Invitrogen). The transfected BL21 bacteria is grown to log phase, and then IPTG is added as an inducer. The induction is carried at 20° C. for 24 hrs. The bacteria are harvested and lysed. The soluble cell lysate is incubated with GSH conjugated Sepharose 4B (GSH-Sepharose 4B). The GST-cGB-PDE5 fusion protein can bind to the GSH-Sepharose beads, and the other proteins are washed off from beads with excessive cold PBS.
The vials are counted on a Beckman LS 6500 scintillation counter.
The quenching by filter membrane or other debris are also calibrated.

[2] = Seven-day dose-range finding study in rats; type: in vivo; conditions: 7 days, 500 mg/kg/day
[3] = Long-term safety assessment, 91 consecutive days, rats; type: in vivo; conditions: 91 days, 200 and 500 mg/kg/day
Text: These changes were not associated with any gross clinical abnormality.

U937 cells = experiment: Apoptosis induction of U937 cells (active caspase 3, indirect immunofluorescence); type: cell-based; conditions: 1 μM, 24 hours
Procedure: The presence of PDE2 and PDE5 protein within U937 cells was confirmed by indirect immunofluorescence (IIF). U937 cells were cultured as above. Two U937 cultures, one grown in the presence of 5 nM TPA for 48 hours and one grown in normal media were processed. All cultures were collected by centrifugation (Shandon Cytospin, 2 minutes @ 600 rpm) onto poly-L lysine-coated slides and immediately fixed in fresh 3% paraformaldehyde buffered in PBS for 10 minutes. Adherent cultures were grown on coverslips and fixed as above. Cells were permeablized in 0.2% triton-100 for 2 minutes. Slides were blocked with blocking buffer (5% goat serum, 5% glycerol, 1% gelatin from cold water fish skin and 0.04% NaN3 in PBS) for 1 hour at room temperature.
Slides were then incubated for 1 hour at 37° C. in a humid chamber with antibodies specific for PDE2 (generated in a sheep against the peptide […]) or PDE5 (generated in sheep against the peptide […]). The PDE5 antibody was used at a dilution of 1:200 and the PDE2 antibody was used at a dilution of 1:100. All dilutions were performed in blocking buffer. […]
The level of apoptosis in U937 cells was quantified by scoring 500 consecutive cells for the presence of active caspase 3. […]

[4] = in vivo; cited from earlier work

T1 sequence (O76074 46-539 limits assumed): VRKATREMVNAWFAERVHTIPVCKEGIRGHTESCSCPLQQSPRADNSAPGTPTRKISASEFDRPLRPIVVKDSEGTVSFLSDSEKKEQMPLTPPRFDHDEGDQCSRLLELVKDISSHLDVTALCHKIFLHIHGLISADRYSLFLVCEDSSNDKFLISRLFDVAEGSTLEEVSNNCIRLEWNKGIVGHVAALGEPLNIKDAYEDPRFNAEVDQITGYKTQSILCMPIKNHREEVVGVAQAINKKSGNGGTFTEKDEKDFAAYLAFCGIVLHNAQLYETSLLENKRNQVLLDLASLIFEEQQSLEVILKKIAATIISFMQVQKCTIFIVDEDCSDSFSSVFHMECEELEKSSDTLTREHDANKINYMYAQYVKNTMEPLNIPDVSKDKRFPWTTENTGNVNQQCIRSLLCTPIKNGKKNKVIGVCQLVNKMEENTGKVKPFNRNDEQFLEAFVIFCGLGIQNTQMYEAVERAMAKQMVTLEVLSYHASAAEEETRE

Row | Compound | competition with cGMP in binding of GST-cGB-PDE5 (cGMP binding sites) ([1]; 3H-cGMP 2 μM, 22° C., 1 hour) | other results
1 | CSc1ccc(/C=C2/C(C)=C(CC(=O)O)c3cc(F)ccc32)cc1 [Sulindac sulfide, sulindac sulfide] | None of the PDE5 inhibitors showed any competition with cGMP | 
2 | CC1=C(CC(=O)O)c2cc(F)ccc2/C1=C\c1ccc(S(C)(=O)=O)cc1 [exisulind] | None of the PDE5 inhibitors showed any competition with cGMP | 
3 | CCCOc1ccccc1-c1nc2nn[nH]c2c(=O)[nH]1 [zaprinast] | None of the PDE5 inhibitors showed any competition with cGMP | 
4 | CCCCOC1C2OP(=O)(O)OCC2OC1n1cnc2c(N)ncnc21 (stereo not shown) [2′-O-butyl-cAMP] | did not compete with cGMP in binding | 
5 | CC1=C(CC(=O)NCc2ccccc2)c2cc(F)ccc2/C1=C\c1ccncc1 [Compound 38, (Z)-5-Fluoro-2-Methyl-(4-Pyridylidene)-3-(N-Benzyl) Indenylacetamide Hydrochloride] | does not bind to the cGMP-binding site of PDE5 | treatment-related effects [2]: limited to an increase in absolute and relative liver weights in female rats; microscopic findings [3]: slight hepatocellular hypertrophy at 200 and 500 mg/kg/day groups, follicular cell hypertrophy at 500 mg/kg/day and increase in accumulation of hyalin droplets in the kidneys at 200 and 500 mg/kg/day group; apoptosis by presence of active caspase 3 (FIG. 8) (U937 cells): undergoing apoptosis
6 | CCCCOC1C2OP(=O)(O)OCC2OC1n1cnc2c(=O)[nH]c(N)nc21 (stereo not shown) [2′-O-butyl-cGMP] | did not compete with cGMP in binding | 
7 | interferon gamma: interferon, drug that affects certain factors in the immune system |  | skin symptoms [4]: modest improvement in skin symptoms
8 | O=c1[nH]cnc2c1ncn2[C@@H]1O[C@@H]2COP(=O)(O)O[C@H]2[C@H]1O [Cyclic IMP, cyclic IMP] |  | competition with cGMP in binding of GST-cGB-PDE5 [1]: can partially compete with cGMP
9 | Nc1nc2c(nc(Br)n2[C@@H]2O[C@@H]3COP(=O)(O)O[C@H]3[C@H]2O)c(=O)[nH]1 [Example 8-bromo-cGMP, 8-bromo-cGMP] |  | competition with cGMP in binding of GST-cGB-PDE5 [1]: can partially compete with cGMP
10 | O=C(O)C1CCN(c2nc(NCc3ccc4c(c3)OCO4)c3cc(Cl)ccc3n2)CC1 [Example E4021] | None of the PDE5 inhibitors showed any competition with cGMP | 
11 | O=c1ccn([C@@H]2O[C@@H]3COP(=O)(O)O[C@H]3[C@H]2O)c(=O)[nH]1 [cUMP, cyclic UMP] | did not compete with cGMP in binding | 
12 | Nc1ccn([C@@H]2O[C@@H]3COP(=O)(O)O[C@H]3[C@H]2O)c(=O)n1 [cCMP, cyclic CMP] | did not compete with cGMP in binding | 
13 | Nc1ncnc2c1ncn2[C@@H]1O[C@@H]2COP(=O)(O)O[C@H]2[C@H]1O [Cyclic AMP] |  | competition with cGMP in binding of GST-cGB-PDE5 (cGMP binding sites) [1]: did not compete with cGMP in binding
